Where a SMILES comes first, the peptide text is derived from it. [ ]: non-standard residue; d: D form. βAla = NCCC(=O)O
Columns and labels:
hMSCs [1] = assay: Peptide degradation in media on top of cells; assay type: in vitro ADME, human; settings: 24 h, LCMS
hUVECs [2] = assay: Peptide degradation in media on top of cells; assay type: in vitro ADME, human; settings: 24 h, LCMS
hMSCs [3] = assay: Peptide degradation in Cells condition with MMP-14 inhibitor, hMSCs; assay type: in vitro ADME, human; settings: 50 μM peptide, MMP-14 inhibitor NSC 405020, 24 h, LCMS; text to Fig. 4
hUVECs [4] = assay: Viability of hUVECs in peptide-crosslinked PEG hydrogels; assay type: cell-based, human
[5] = Peptide degradation in cell-free conditioned media; assay type: in vitro ADME, human; settings: initial peptide library, 24 h, LCMS, text to Fig. 2B
[6] = Peptide degradation in cell-free conditioned media; assay type: in vitro ADME, human; settings: initial peptide library, 24 h, LCMS, text to Fig. 2B; remark: listed apart in the source
hMSCs [7] = assay: Cell spreading of hMSCs in peptide-crosslinked PEG hydrogels; assay type: cell-based, human; settings: PEG hydrogels containing hMSCs or hUVECs at 20 million cells/mL, up to Day 7
[8] = individually synthesized peptides, 50 μM, text to Fig. 4
[9] = initial peptide library, text to Fig. 2B

Compound	degradation in the cells condition, hMSCs (hMSCs [1]; [8]) [%]	degradation in the cells condition, hUVECs (hUVECs [2]; [8]) [%]	degradation in the cells condition, hMSCs (hMSCs [1]; [9]) [%]	degradation in the cells condition, hUVECs (hUVECs [2]; [9]) [%]	degradation in the Cells + Inhibitor condition, hMSCs (hMSCs [3]) [%]	hUVEC cell number after seven days in crosslinked gels, difference (hUVECs [4]; PanMMP compared with the KLVAD peptides, DNA quantification, Fig. 6D)	hUVEC metabolic activity after seven days in crosslinked gels (hUVECs [4]; compared with the KLVAD peptides, alamarBlue, Fig. 6C)	degradation in media condition, hMSC [5]	degradation in media condition, hUVEC [6]	cytotoxicity of hydrogels crosslinked by the peptide (hMSCs [7])
CSCC[C@H](NC(=O)[C@H](CC(C)C)NC(=O)[C@H](CC(=O)O)NC(=O)[C@H](C)NC(=O)[C@@H](NC(=O)[C@H](CC(C)C)NC(=O)[C@H](CCCCN)NC(=O)CCNC(C)=O)C(C)C)C(=O)N[C@@H](C)C(=O)N[C@@H](CO)C(=O)N[C@@H](C)C(=O)N[C@@H](CCC(=O)O)C(=O)NCCC(N)=O [KLVAD-LM] (Ac-[βAla]KLVADLMASAE[βAla]-NH2)	54	16								
GPQGIWGQ [PanMMP, reference compound]	65		61	31	22	not significant	higher metabolic activity			
KLVADNYASAE	22	4	30	8				less than 3%	less than 3%	cytotoxic

Source: article doi:10.1101/2024.05.16.594348v1 (bioRxiv, 2024)
